Reference: patent publication US20110306547A1, “LHRH - ANTAGONISTS IN THE TREATMENT OF FERTILITY DISORDERS” (Zentaris GmbH, priority 1996, published 2011)
Where a SMILES comes first, the peptide text is derived from it. [ ]: non-standard residue; d: D form. dPhe(4-Cl) = N[C@H](Cc1ccc(Cl)cc1)C(=O)O; d2Nal = N[C@H](Cc1ccc2ccccc2c1)C(=O)O; dCit = NC(=O)NCCC[C@@H](N)C(=O)O; d3Pal = N[C@H](Cc1cccnc1)C(=O)O

Tested on: patients undergoing COS/ART
Assay: Phase II clinical trial of Cetrorelix in controlled ovarian stimulation / superovulation for assisted reproduction (COS/ART)
Type: in vivo, human (patients)
Protocol: The results of a phase II clinical trial are shown in Table I. A total of […] patients were treated. […] During multiple dosing, the mean days of Cetrorelix application is 6 days. 25 babies were born by the end of May 1996 (7 following multiple doses; 18 following single/dual doses). [table] […] [table] 238 patients were treated with Cetrorelix by subcutaneous injection of Cetrorelix […]-Lyophilisat. 134 patients were treated with multiple doses and 104 patients with single or dual doses. The multiple doses are 0.25 mg/day or higher. The single dose was 3 mg or higher. […] Multiple doses were applied for 3 to a maximum of 10 days dependent on follicular development.

[1] = multiple dose schedule, daily s.c., 3-7/14 days, phase II dose finding
[2] = single dose, posology 1 day, phase II dose finding

Question: Which “premature LH surge (FIG. 1)” value (FIG. 1) does the source give for CC(=O)N[C@H](Cc1ccc2ccccc2c1)C(=O)N[C@H](Cc1ccc(Cl)cc1)C(=O)N[C@H](Cc1cccnc1)C(=O)N[C@@H](CO)C(=O)N[C@@H](Cc1ccc(O)cc1)C(=O)N[C@H](CCCNC(N)=O)C(=O)N[C@@H](CC(C)C)C(=O)N[C@@H](CCCNC(=N)N)C(=O)N1CCC[C@H]1C(=O)N[C@H](C)C(N)=O [Cetrorelix] (Ac-[d2Nal][dPhe(4-Cl)][d3Pal]SY[dCit]LRP[dA]-NH2) here?
Answer: absolute prevention of any premature LH surge

Question: What about the “pregnancies (number)” value (all phase II patients, both regimens) of the same compound?
Answer: 71 pregnancies

Question: What about the “minimal effective dose (Dose/Day)” value [1] of the same compound?
Answer: 0.25 min. effect. dose mg

Question: And the “no effect dose (Dose/Day)” value [1]?
Answer: 0.10 no effect. dose mg

Question: And the “premature LH surge” value (multiple doses of 0.25 mg/day or higher)?
Answer: No premature LH surge was seen in any patient

Question: And the “premature LH surge” value (single dose of 3 mg or higher)?
Answer: No premature LH surge was seen in any patient

Question: What about the minimal effective dose [2] of the same compound?
Answer: 3 min. effective dose mg

Question: What about the no effect dose [2] of the same compound?
Answer: 2 no effect. Dose mg

Question: What about the “babies born by the end of May 1996” value (total) of the same compound?
Answer: 25
